The results in this text go back to article PMC6269910 (Molecules, 2013).

The target of data set [1] is T1, HCV NS5B RNA dependent RNA polymerase (Hepatitis C virus genotype 1b, UniProt P26663).
T1 construct: HCV NS5B RNA dependent RNA polymerase activity
The data set can be described thus: NS5B inhibition assay (primer dependent elongation, poly rA-U12). The format is biochemical. Here is the method:
The compounds 1a–e and 2a–e were reconstituted in DMSO as 50 mM stocks, and serially diluted in DMSO to obtain working stocks. Wedelolactone, a known inhibitor of HCV NS5B activity, was employed as a reference compound. Preliminary screening was carried out at 100 μM to identify a wider range of compounds.
All synthesized compounds were evaluated for their effect on HCV NS5B RNA dependent RNA polymerase activity in primer dependent elongation assays as previously described. Activity of NS5B in the absence of the inhibitor but containing an equivalent amount of DMSO (control reaction) was set at 100% and that in the presence of the inhibitor was quantified relative to this control.

The subject of data set [2] is acetic acid-induced abdominal constriction. The data set can be described thus: Acetic acid-induced writhing (Koster) test. It is filed as in vivo, mice. The method, then:
Test samples, suspended in a mixture of distilled water and 0.5% sodium carboxymethyl cellulose (CMC), were given orally to the animals. The control group animals received the same experimental handling as those of the test groups, except that the drug treatment was replaced with appropriate volumes of the dosing vehicle. […] One hour after oral administration of test sample, each mouse was injected intraperitoneally with 3% (w/v) acetic acid solution (0.1 mL/10 g, bw). Starting 5 min after the acetic acid injection, the number of muscular contractions on mice were counted for a period of 10 min. A significant reduction in the number of writhings by any treatment as compared to the number of writhings in control animals was considered a positive analgesic response. The analgesic activity was expressed as a percentage change from writhing controls. ASA was used as a reference compound and administered at 200 mg/kg.
Background: In writhing tests, fewer writhes than in controls are read as antinociception.

In data set [3] the test system is stomach. The data set can be described thus: Gastric-ulcerogenic effect (ulcer score). It is filed as in vivo, mice.
In data set [4] the test system is lipid peroxidation in stomach. The data set can be described thus: Lipid peroxidation in stomach (TBARS). The format is in vivo, mice.
Data set [5] relates to carrageenan-induced hind paw edema. The data set can be described thus: Carrageenan-induced hind paw edema model. The format is in vivo, mice. Particulars: 25 mg/kg per os. Here is the method: Locally bred balb/c mice of both sexes (30-35 g) were purchased from the animal breeding laboratories of Inonu University ([…], Turkey). The animals were fed a standard pellet diet and water ad libitum in a temperature-controlled room. On the day before the treatments, food was withdrawn, but the animals were allowed free access of water. The allocation of animals to different groups was randomized, and the experiments were carried out under blind conditions. Mice used in the present study were cared for in accordance with the directory of the Inonu University Animal Care Unit, which applies the guidelines of the National Institutes of Health on laboratory animal welfare. Procedures involving animals and their care were conducted in conformity with international laws and policies and animal studies accepted by Inonu University Ethical Council (2011/A17). Test samples, suspended in a mixture of distilled water and 0.5% sodium carboxymethyl cellulose (CMC), were given orally to the animals. The control group animals received the same experimental handling as those of the test groups, except that the drug treatment was replaced with appropriate volumes of the dosing vehicle. […] For the preliminary activity screening, each test group was composed of four mice. […] Because of the daily changing circumstance, we used another control group for each experiment. For the determination of the effects on carrageenan-induced paw oedema, the modified method of Kasahara et al. was employed. One hour after the oral administration of either test sample or dosing vehicle, each mouse was injected with a freshly prepared (0.5 mg/25 μL) suspension of carrageenan (Sigma, St. Louis, MO, USA) in physiological saline (154 mM NaCl). The subplantar tissue of the right hind paw was the injection site for all mice. The contralateral paw (left hind paw) was injected with 25 μL saline solution as the internal control. […] The difference in footpad thickness between the right and left foot indicated the degree of inflammation for each mouse. The change in paw volume, either increase or decrease, was calculated and compared with the control group (dosing vehicle) and analyzed using statistical methods.

The test system of data set [6] is LPO. The data set can be described thus: LPO (TBARS) level in liver, kidney, colon, brain. The format is in vivo, mice. The following applies: celecoxib 25 mg/kg oral, 72 h. The method, then: (§1) Tissue samples were homogenized with ice-cold 150 mM KCl for the determination of LPO and glutathione (GSH) levels. The LPO levels were assayed by monitoring TBARS formation as described above.

The subject of data set [7] is myeloperoxidase (MPO). The data set can be described thus: MPO activity in liver, kidney, colon, brain. The following applies: celecoxib 25 mg/kg oral, 72 h. The format is in vivo, mice. Here is the method:
MPO is an enzyme that is found predominantly in the azurophilic granules of polymorphonuclear leukocytes (PMN). […] MPO activity was measured in tissues in a procedure similar to that documented by […] et al.

The test system of data set [8] is glutathione (GSH). The data set can be described thus: GSH level in liver, kidney, colon, brain. The following applies: celecoxib 25 mg/kg oral, 72 h. The format is in vivo, mice. Here is the method:
as §1

Data set [9] deals with superoxide dismutase (SOD). The data set can be described thus: SOD activity in liver, kidney, colon, brain. The format is in vivo, mice. The following applies: celecoxib 25 mg/kg oral, 72 h. The method, then: SOD is a major antioxidant enzyme found in cells, which protect cells from oxidative stress. SOD activity in the tissue samples was measured according to the previously described method.

Setting [10] is: read-out: Anti-NS5B Activity (% Inh., 100 µM).
Setting [11] is: brain, series with 1a 100 mg/kg.
The mark [12] stands for this setting: brain, series with 1a 200 mg/kg.
The mark [13] stands for this setting: colon, series with 1a 100 mg/kg.
Where [14] appears, read: colon, series with 1a 200 mg/kg.
Where [15] appears, read: kidney, series with 1a 100 mg/kg.
[16] abbreviates: kidney, series with 1a 200 mg/kg.
Setting [17] is: liver, series with 1a 100 mg/kg.
Where [18] appears, read: liver, series with 1a 200 mg/kg.

Read-outs that look alike come from different tables or passages of the source.

T1 sequence (P26663 2420-3010): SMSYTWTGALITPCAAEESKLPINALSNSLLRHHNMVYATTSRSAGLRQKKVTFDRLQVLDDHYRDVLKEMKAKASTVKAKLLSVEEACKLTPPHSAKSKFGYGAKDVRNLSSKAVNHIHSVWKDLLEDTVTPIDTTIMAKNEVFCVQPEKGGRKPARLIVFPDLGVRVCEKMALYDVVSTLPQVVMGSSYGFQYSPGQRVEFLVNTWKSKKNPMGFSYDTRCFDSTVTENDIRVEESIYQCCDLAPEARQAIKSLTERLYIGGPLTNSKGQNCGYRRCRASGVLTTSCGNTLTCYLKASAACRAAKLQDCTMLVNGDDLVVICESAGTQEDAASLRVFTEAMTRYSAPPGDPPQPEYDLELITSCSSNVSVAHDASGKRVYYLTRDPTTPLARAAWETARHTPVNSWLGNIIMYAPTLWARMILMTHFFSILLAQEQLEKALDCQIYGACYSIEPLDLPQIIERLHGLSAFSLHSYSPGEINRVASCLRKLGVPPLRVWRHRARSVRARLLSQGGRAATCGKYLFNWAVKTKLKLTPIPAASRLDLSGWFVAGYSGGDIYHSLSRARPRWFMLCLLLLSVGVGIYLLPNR

The term melting point denotes the temperature, or range, at which the solid turns liquid. The compound `Cc1ccc(-c2cc(C(F)(F)F)nn2-c2ccc(S(=O)(=O)/N=C3\SCC(=O)N3c3ccc(C(F)(F)F)cc3)cc2)cc1` [Compound 2e, N-[3-(4-Trifluoromethylphenyl)-4-oxo-1,3-thiazolidin-2-yldene)-4-[5-(4-methylphenyl)-3-(trifluoro-methyl)-1H-pyrazol-1-yl]benzenesulfonamide] registered a melting point of 234 to 235 °C. Besides, the inhibition at 100 µM in data set [1] (setting [10]) was 9.4%.
The IC50 is the midpoint of a concentration-inhibition curve. Low values mean greater potency in that assay, high ones weaker potency in that assay. Take `Cc1ccc(-c2cc(C(F)(F)F)nn2-c2ccc(S(=O)(=O)NC(=S)NCc3ccccc3)cc2)cc1` [Compound 1c, N-(Benzylcarbamothioyl)-4-[5-(4-methylphenyl)-3-(trifluoromethyl)-1H-pyrazol-1-yl] benzene-sulfonamide]: the melting point was in the range of 237 to 240 °C. In addition, in [1] (dose-response, 8–12 concentrations), the IC50 came out at 36.2 ± 1.2 µM. In data set [1] (setting [10]), the inhibition at 100 µM stood at 82.3%.
As to `Cc1ccc(-c2cc(C(F)(F)F)nn2-c2ccc(S(=O)(=O)NC(=S)Nc3ccccc3)cc2)cc1` [Compound 1b, N-(Phenylcarbamothioyl)-4-[5-(4-methylphenyl)-3-(trifluoromethyl)-1H-pyrazol-1-yl] benzene-sulfonamide], the melting point was in the range of 251 to 252 °C. In addition, the inhibition at 100 µM in data set [1] (setting [10]) was determined as 53.5%.
For `CCN1C(=O)CS/C1=N\S(=O)(=O)c1ccc(-n2nc(C(F)(F)F)cc2-c2ccc(C)cc2)cc1` [Compound 2a, N-(3-Ethyl-4-oxo-1,3-thiazolidin-2-yldene)-4-[5-(4-methylphenyl)-3-(trifluoromethyl)-1H-pyrazol-1-yl]benzenesulfonamide] the same measures were 282 °C and 8.2%.
Turning to `CC(=O)Oc1ccccc1C(=O)O` [ASA, acetylsalicylic acid, reference compound], in data set [2] (200 mg/kg oral), the “Writhing test (% inh.)” value was 74.7% and the “Writhing test (Mean ± SEM)” value was found to be 4.4 ± 0.9. Also, in data set [3] (ASA 200 mg/kg), the Ulcer score is 3/5. The same compound came in with a Lipid peroxidation in data set [4] (ASA 200 mg/kg) of 436.1 ± 17.1 nmol TBARS/g wet weight.
For `Cc1ccc(-c2cc(C(F)(F)F)nn2-c2ccc(S(N)(=O)=O)cc2)cc1` [Celecoxib, 4-[5-(4-methylphenyl)-3-(trifluoromethyl)-1H-pyrazole-1-yl]benzene-sulfonamide, reference compound], the “Swelling in thickness ± SEM” value in data set [5] (90 min) is 57.0 ± 6.9 × 10^−2 mm; in data set [5] (180 min), 42.0 ± 3.3 × 10^−2 mm; in data set [5] (270 min), 94.0 ± 10.4 × 10^−2 mm; in [5] (360 min), 103.0 ± 7.5 × 10^−2 mm. For the same compound, the percent inhibitory activity in [5] (180 min) was 54.3%. Further, the “Writhing test (% inh.)” value in [2] (25 mg/kg oral) is reported as 54%. Besides, the “Writhing test (Mean ± SEM)” value in data set [2] (25 mg/kg oral) is 8.0 ± 1.3. In addition, in data set [3] (celecoxib 25 mg/kg), the Ulcer score was 0/5. The same compound gave a Lipid peroxidation in [4] (celecoxib 25 mg/kg) of 417.8 ± 23.3 nmol TBARS/g wet weight. In addition, the LPO in [6] (setting [11]) stood at 8.18 ± 2.16 nmol/g tissue; in data set [6] (setting [12]) it was 8.26 ± 1.01 nmol/g tissue; in [6] (setting [13]) it was 7.12 ± 0.26 nmol/g tissue; in data set [6] (setting [14]), 10.48 ± 2.69 nmol/g tissue; in [6] (setting [15]), 11.12 ± 2.41 nmol/g tissue; in data set [6] (setting [16]), 11.30 ± 2.52 nmol/g tissue. Moreover, the LPO in data set [6] (setting [17]) was determined as 9.56 ± 1.80 nmol/gtissue; in [6] (setting [18]), 11.74 ± 2.25 nmol/gtissue. Besides, the MPO in [7] (setting [11]) is 0.60 ± 0.23 U/gtissue; in data set [7] (setting [12]) it was 1.48 ± 0.46 U/gtissue; in data set [7] (setting [13]), 0.52 ± 0.26 U/gtissue; in data set [7] (setting [14]) it was 0.46 ± 0.26 U/gtissue; in data set [7] (setting [15]), 3.36 ± 1.57 U/g tissue; in [7] (setting [16]), 4.75 ± 1.59 U/g tissue. In addition, the values for the MPO in [7] (setting [17]) and in data set [7] (setting [18]) were 0.63 ± 0.30 U/gtissue and 0.19 ± 0.06 U/gtissue, respectively. For the same compound, the GSH was 22.36 ± 2.45 µmol/g tissue in data set [8] (setting [11]); 20.2 ± 3.26 µmol/g tissue in [8] (setting [12]); 28.06 ± 1.45 µmol/g tissue in data set [8] (setting [13]); 26.42 ± 3.46 µmol/g tissue in data set [8] (setting [14]); 22.24 ± 4.17 µmol/g tissue in [8] (setting [15]); 21.68 ± 5.56 µmol/g tissue in data set [8] (setting [16]). Besides, the GSH in [8] (setting [17]) is on record as 20.58 ± 4.25 µmol/g tissue; in data set [8] (setting [18]), 22.14 ± 1.04 µmol/g tissue. Moreover, the SOD in data set [9] (setting [11]) was 24.84 ± 10.65 U/g tissue; in data set [9] (setting [12]), 20.41 ± 13.73 U/g tissue; in [9] (setting [13]), 16.85 ± 5.24 U/g tissue; in [9] (setting [14]) it was 19.04 ± 5.60 U/g tissue; in data set [9] (setting [15]), 17.79 ± 7.47 U/g tissue; in data set [9] (setting [16]) it was 16.83 ± 9.71 U/g tissue. Moreover, the SOD is 22.78 ± 14.45 U/g tissue in data set [9] (setting [17]) and 13.60 ± 11.98 U/g tissue in data set [9] (setting [18]). Besides, the “Anti-NS5B Activity (% Inh., 100 µM)” value in data set [1] (100 µM) was found to be 9.5%. In addition, in data set [1] (read-out: Anti-NS5B Activity (% Inh., 100 µM), 100 µM), the inhibition at 100 µM is roughly 10%.
